This data set can be described thus: Human HepG2 cell viability assay in 384 well format. The class given is toxicity, cell-based. The arrangement: dose 125 nL, time 70.5 hour; cytotoxicity at 70.5 h: concentration not given beside the values. The note with it: HepG2 cells, read-out: Inhibition.
In the case of `O=C(O)C1CCCN1c1nc(-c2ccc(Cl)c(Cl)c2)cc(C(F)(F)F)n1` (stereo not drawn), the cytotoxicity at 70.5 h is -3.95%.
In the case of `Cc1nnc([C@H]2C[C@@H]3CCN(Cc4cc(C)on4)C[C@H]3O2)[nH]1` it was -4.17%; in that of `CS(=O)(=O)N1CC[C@@H]2OC(COCC(=O)N3CCCC3)CC[C@@H]21` (stereo partly drawn), -6.9%; in that of `O=C1CC[C@H]2[C@H](CCN2C(=O)c2ccc[nH]2)N1CCN1CCOCC1`, 19.1%.
The figure for `Cc1csc(CN2CC[C@H]3C[C@H](C)O[C@@H]3C2)n1` is -10.4%; for `Cc1csc(CN2CC[C@H]3C[C@H](c4noc(C)n4)O[C@@H]3C2)n1` it is -9.71%; for `Cc1ncsc1CN1C[C@H]2OCC[C@H]2[C@H](C(=O)NCC2CC2)C1` it is 2.15%.
In the case of `Cc1csc(CN2CC[C@H]3C[C@@H](c4noc(C)n4)O[C@@H]3C2)n1`, the cytotoxicity at 70.5 h is -0.439%.
In the case of `COC[C@@]12CCO[C@@H]1CCN(C(=O)Cc1ccc(C)cc1)C2` it was 31.2%; in that of `N#Cc1ccc(OC[C@]23COC[C@H]2CN(Cc2nccs2)C3)nc1`, -4.7%.
With `Cc1nocc1C(=O)N1CCCC2(CCN(c3cnn(C)c3)C2=O)C1` (stereo not drawn), the cytotoxicity at 70.5 h was -3.71%.
The figure for `Cc1ccc(CN2C[C@@H]3COC[C@]3(COc3ccc(C#N)cn3)C2)o1` is 7.17%; for `Cc1cc(C(=O)NCC(C)C)nn1C` it is -5.81%.
The figure for `CCn1cc(C(=O)NCc2ccc3c(c2)OCO3)c(C)n1` is -1.15%; for `CCn1cc(CNc2ccc(F)c(F)c2)cn1` it is 8.3%; for `O=C(O)Cn1nc(C2CC2)c2c(-c3ccc(F)cc3)ccnc21` it is -10.6%.
The figure for `COC(=O)c1ccc(OC)c(Cn2cc(Br)cn2)c1` is -16.7%; for `Cc1nn(C)cc1-c1cc(C(F)(F)F)nn1CCC#N` it is -1.92%.
In the case of `Cc1ccc(Cn2nc(C)c3c(C(=O)O)c(Cl)c(C)nc32)cc1`, the cytotoxicity at 70.5 h is -12.9%.
The figure for `COC(=O)c1c(Cl)c(C2CC2)nc2onc(C)c12` is 2.98%; for `COC(=O)c1cc(C2CC2)nc2c(Cl)cnn12` it is 24.9%; for `Cc1c(-c2cc(C(F)(F)F)nc(N3CCC(N)CC3)n2)cnn1C` it is 32.2%.
For the compound `CNC(=O)Cc1n[nH]c(-c2cncc(Br)c2)n1`, the cytotoxicity at 70.5 h amounted to 27.1%.
In the case of `CCOC(=O)Cc1n[nH]c(-c2cncc(Br)c2)n1` it was 7.76%; in that of `O=C(O)CCCC(=O)Nc1cnn(COc2ccc(F)cc2Cl)c1`, 7.18%.
The figure for `Cc1ccnc(NC(=O)CCc2cnn(C)c2C)c1` is -4.47%; for `O=C(O)CCC(=O)Nc1nn(Cc2ccccc2Cl)cc1Cl` it is -5.22%; for `CCN(CC)C(=O)c1ccn(COc2ccc(F)cc2)n1` it is -10.8%.
In the case of `COCCNc1cc(C)nn2cnnc12` it was 11.1%; in that of `CC(=O)Nc1ncc(S(=O)(=O)Nc2ccccc2)s1`, -11.1%; in that of `CC(=O)Nc1ncc(S(=O)(=O)Nc2cccc(C)c2)s1`, -12.5%.
Regarding `COCCCNc1cc(C)nn2cnnc12`, the cytotoxicity at 70.5 h was -4.69%.
In the case of `C=C/C=c1\c(=C/C)oc2c(NCc3ccccc3)nc(CC)nc12` it was 11.2%; in that of `O=C(CSc1nc2nncc-2c(O)n1-c1ccccc1)N1CCOCC1`, -10.6%; in that of `CN1CCc2nc3c(c(N)c2C1)CCCN3C`, -16.1%.
Take `Cc1c(CN2CCOCC2)c(O)n(CCc2ccccc2)c(=O)c1C#N`: the cytotoxicity at 70.5 h is -9.75%.
In the case of `CCc1ccc(NC(=O)c2n[nH]c(-n3cnnc3)n2)cc1` it was -6.66%.
On to `COCC(=O)Nc1nn(Cc2ccc(F)cc2)cc1Cl`, for which the cytotoxicity at 70.5 h was -5.91%.
The figure for `CCN(CC)C(=O)c1ccn(COc2ccc(F)cc2F)n1` is -7.67%; for `CCC(C)NC(=O)c1ccn(COc2ccccc2Cl)n1` (stereo not drawn) it is -1.06%; for `CCN(Cc1nonc1C)C(=O)c1ccc(Br)o1` it is -4.49%.
The figure for `Cc1c2nnn(CC(=O)N(C)C)c(=O)c2nn1C` is -8.25%.
The figure for `Cc1nn(C)c2c(=O)n(Cc3ccc(Cl)cc3)nnc12` is -9.56%.
For the compound `Cc1nn(C)c2c(NCc3cccnc3)nc(C(C)C)nc12`, the cytotoxicity at 70.5 h was 12.4%.
`COc1ccccc1Nc1nc2c(C)nn(C)c2c(=O)n1C`: the cytotoxicity at 70.5 h is 26.9%.
`COc1ccc(Nc2nc3c(C)nn(C)c3c(=O)n2C)c(C)c1`: the cytotoxicity at 70.5 h was found to be 0.529%.
The figure for `CCn1c(NCc2ccccn2)nc2c(C)nn(C)c2c1=O` is -3.41%; for `CCn1c(NCc2cccnc2)nc2c(C)nn(C)c2c1=O` it is -4.56%.
In the case of `CCn1c(NCc2ccc(OC)cc2)nc2c(C)nn(C)c2c1=O` it was -6.73%; in that of `Cc1nn(C)c2c(=O)n(C(C)C)c(NCC3CCCO3)nc12` (stereo not drawn), -9.24%; in that of `CCCn1c(N2CCCC(C)C2)nc2c(C)nn(C)c2c1=O` (stereo not drawn), -14.3%.
In the case of `O=C(c1n[nH]cc1Cl)N1CCOCC1` it was -6.1%; in that of `CC(C)(CO)NCc1nn(Cc2ccccc2)nc1-c1ccccc1`, 27.2%.
With `COc1c(C)cnc(CNCC(C)C)c1C`, the cytotoxicity at 70.5 h was -4.09%.
The figure for `Cc1cccc(N2CC(c3nnc(N)s3)CC2=O)c1` (stereo not drawn) is -13.7%; for `Nc1nnc(C2CC(=O)N(c3ccccc3)C2)s1` (stereo not drawn) it is -16.4%; for `Cc1ccccc1N1CC(c2nnc(N)s2)CC1=O` (stereo not drawn) it is 3.37%.
On to `Cc1ccc(C2NC(=O)c3cc(C(C)C)sc3N2)cc1` (stereo not drawn), for which the cytotoxicity at 70.5 h was -5.82%.
The figure for `CCn1cc(S(=O)(=O)Nc2nc3c(s2)CCCC3)cn1` is -5.28%; for `NC(=O)c1c(-c2ccc(Cl)cc2)csc1NC(=O)CCC(=O)O` it is -4.48%; for `NC(=O)c1c(-c2ccc(Cl)cc2Cl)csc1NC(=O)CCC(=O)O` it is 20.5%.
In the case of `CCCn1c(SCC(N)=O)nnc1-c1csc2c1CCCC2` it was -9.81%; in that of `CCC(CC)CN1CCN(CC(=O)Nc2ccc3nsnc3c2)CC1`, 3.54%.
In the case of `CCC(CC)CN1CCN(CC(=O)Nc2cccc3nsnc23)CC1` it was -15.1%; in that of `CCn1c(SCC(N)=O)nnc1C(C)NC(=O)c1ccc(Cl)cc1` (stereo not drawn), 17.8%; in that of `N#Cc1cc(C#N)c(SCC(=O)NCc2ccc(F)cc2)nc1N`, 27.8%.
With `O=C1NC2(CCCCC2)c2nnnn2-c2ccc(Br)cc21`, the cytotoxicity at 70.5 h was -5.57%.
Regarding `CCN1CCC2(CC1)NC(=O)c1cc(Br)ccc1-n1nnnc12`, the cytotoxicity at 70.5 h was -5.39%.
In the case of `CC(C)N1CCC2(CC1)NC(=O)c1cc(Br)ccc1-n1nnnc12` it was -4.14%.
The figure for `Clc1ccc(-n2nnnc2C2(NCc3ccco3)CCCCC2)cc1` is -11.2%.
On to `CN1CCN(c2ncc3c(=O)n(Cc4ccco4)ccc3n2)CC1`, for which the cytotoxicity at 70.5 h was -9.22%.
In the case of `CCCC(=O)N1CCC(c2cc3cccnc3c(O)n2)CC1` it was -5.85%.
In the case of `Cc1cc(C)nc(C2CCN(c3ccncn3)C2)n1` (stereo not drawn) it was -2.27%; in that of `Cc1c[nH]nc1C1CCN(C(=O)C2CCCC2)C1` (stereo not drawn), -5.07%.
In the case of `c1ccc(N2CCN(Cc3cnc(C4CCCCO4)nc3)CC2)cc1` (stereo not drawn) it was 4.6%; in that of `CC(=O)N[C@@H]1CN(C(=O)CC2CC2)C[C@H]1O`, -4.46%.
Regarding `CN(C)c1cc(C2CCCN(C(=O)c3ccc(=O)[nH]n3)C2)ccn1` (stereo not drawn), the cytotoxicity at 70.5 h was -1.67%.
With `CNC(=O)c1cc(C2CCCN2)n[nH]1` (stereo not drawn), the cytotoxicity at 70.5 h is -3.32%.
On to `Cc1ncsc1CN1C[C@H](C(=O)NCC2CC2)[C@@H]2CCO[C@@H]2C1`, for which the cytotoxicity at 70.5 h was -7.28%.
Take `CS(=O)(=O)N1CCOCC2(CCN(C(=O)c3ccncc3)CC2)C1`: the cytotoxicity at 70.5 h was -6.51%.
In the case of `COc1cc(N2C[C@H](C(=O)NCC3CC3)[C@@H]3CCO[C@@H]3C2)ncn1` it was -11.6%; in that of `Cc1nc(CO[C@@H]2CN(Cc3ccsc3)[C@@H]3COC[C@@H]32)cs1`, -6.52%; in that of `CS(=O)(=O)NCc1cnc2n1CCN(Cc1cccs1)CC2`, -4.2%.
The figure for `Cc1ccc(CN2CC3(CCN(C(=O)c4cscn4)C3)C2)o1` is -7.14%; for `O=C(c1cscn1)N1CCC2(CN(Cc3ccoc3)C2)C1` it is -9.97%.
In the case of `CS(=O)(=O)NCc1cnc2n1CCN(Cc1ccccn1)CC2` it was -1.27%.
Turning to `Cc1ccc(C(=O)N2C[C@@H]3CCCO[C@@H]3[C@H](N(C)Cc3ccco3)C2)o1`, the cytotoxicity at 70.5 h amounted to 28.7%.
In the case of `Cc1ccc2nc(C3CCN(CC4CC4)CC3)nn2c1` it was 32.6%.
Turning to `O=S(=O)(C1CC1)N1CCO[C@H]2[C@@H](Oc3cccnc3)CC[C@@H]21`, the cytotoxicity at 70.5 h was -5.72%.
The figure for `O=S(=O)(C1CC1)N1CCO[C@H]2[C@H](Oc3cccnc3)CC[C@@H]21` is -4.91%; for `c1cc(-c2ccc3c(c2)CCC32CCN(c3nncs3)CC2)ccn1` it is -2.69%; for `CS(=O)(=O)NCc1cnc2n1CCN(Cc1cccnc1)CC2` it is -9.03%.
In the case of `Cc1nc(CO[C@@H]2CN(Cc3cccnc3)[C@@H]3COC[C@@H]32)cs1` it was -10.3%; in that of `COCCN1C[C@@H]2[C@@H](OC)CCN(Cc3ccc(C)o3)[C@@H]2C1`, -1.05%.
In the case of `c1cncc(O[C@H]2CC[C@H]3[C@H]2OCCN3C2CCC2)c1` it was -3.23%; in that of `CN1CC(=O)N(c2cnn(C)c2)CC12CCN(Cc1cccs1)C2` (stereo not drawn), -1.01%.
For `CNc1cc(C2CCCN2C(=O)c2ccc(=O)[nH]n2)ccn1` (stereo not drawn), the cytotoxicity at 70.5 h was -2.78%.
The figure for `O=C(O)c1cnc2c(Br)cccc2c1O` is -5.88%.

(Values after ChEMBL document CHEMBL3507680, “University of Dundee, Gates Library screen for HepG2 cell viability”.)
